Measurements taken from patent US11306087B2, “Inhibitors of KRAS G12C and methods of using the same” (Amgen Inc., priority 2017, dated 2022).

Legend:
[1] = target: GDP-bound KRAS protein (aa 1-169), containing both G12C and C118A amino acid substitutions (Homo sapiens (Human), UniProt P01116, C118A/G12C); experiment: Coupled Nucleotide Exchange Assay; type: biochemical; conditions: 5 min compound pre-incubation; inhibition of SOS-mediated nucleotide exchange; AlphaScreen
Protocol: For compounds in Table 2, the following assay conditions were employed: Coupled Nucleotide Exchange Assay: Purified GDP-bound KRAS protein (aa 1-169), containing both G12C and C118A amino acid substitutions and an N-terminal His-tag, was pre-incubated with a compound dose-response titration for 5 min in assay buffer (25 mM HEPES pH 7.4, 10 mM MgCl2, and 0.01% Triton X-100). Following compound pre-incubation, purified SOS protein (aa 564-1049) and GTP (Roche 10106399001) were added to the assay wells and incubated for an additional 30 min. To determine the extent of inhibition of SOS-mediated nucleotide exchange, purified GST-tagged cRAF (aa 1-149), nickel chelate AlphaLISA acceptor beads (PerkinElmer AL108R), and AlphaScreen glutathione donor beads (PerkinElmer 6765302) were added to the assay wells and incubated for 5 minutes. The assay plates were then read on a PerkinElmer EnVision Multilabel Reader, using AlphaScreen® technology, and data were analyzed using a 4-parameter logistic model to calculate IC50 values.

[2] = tested on: Phosphorylation of ERK1/2 in MIA PaCa-2 cells; experiment: Phospho-ERK1/2 MSD Assay; type: cell-based; conditions: Homo sapiens, 2 hours compound treatment, 10 ng/mL EGF for 10 min, read-out: p-ERK IC50 (MIA PaCa-2)
Protocol: Phospho-ERK1/2 MSD Assay: MIA PaCa-2 (ATCC® CRL-1420™) and A549 (ATCC® CCL-185™) cells were cultured in RPMI 1640 Medium (ThermoFisher Scientific 11875093) containing 10% fetal bovine serum (ThermoFisher Scientific 16000044) and 1× penicillin-streptomycin-glutamine (ThermoFisher Scientific 10378016). Sixteen hours prior to compound treatment, MIA PaCa-2 or A549 cells were seeded in 96-well cell culture plates at a density of 25,000 cells/well and incubated at 37° C., 5% CO2. A compound dose-response titration was diluted in growth media, added to appropriate wells of a cell culture plate, and then incubated at 37° C., 5% CO2 for 2 hours. Following compound treatment, cells were stimulated with 10 ng/mL EGF (Roche 11376454001) for 10 min, washed with ice-cold Dulbecco's phosphate-buffered saline, no Ca^2+ or Mg^2+ (ThermoFisher Scientific 14190144), and then lysed in RIPA buffer (50 mM Tris-HCl pH 7.5, 1% Igepal, 0.5% sodium deoxycholate, 150 mM NaCl, and 0.5% sodium dodecyl sulfate) containing protease inhibitors (Roche 4693132001) and phosphatase inhibitors (Roche 4906837001). Phosphorylation of ERK1/2 in compound-treated lysates was assayed using Phospho-ERK1/2 Whole Cell Lysate kits (Meso Scale Discovery K151DWD) according to the manufacturer's protocol. Assay plates were read on a Meso Scale Discovery Sector Imager 6000, and data were analyzed using a 4-parameter logistic model to calculate IC50 values.

Chain of GDP-bound KRAS protein (aa 1-169), containing both G12C and C118A amino acid substitutions (P01116 other isoform, or with tags, fused parts or gaps G12C/C118A): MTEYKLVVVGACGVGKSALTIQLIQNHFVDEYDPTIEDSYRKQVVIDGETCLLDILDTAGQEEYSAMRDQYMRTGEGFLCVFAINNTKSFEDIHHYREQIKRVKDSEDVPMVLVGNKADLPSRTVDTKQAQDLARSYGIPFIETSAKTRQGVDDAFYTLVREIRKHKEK

Row | SMILES | IC50 [1] | IC50 [2]
1 | C=CC(=O)N1[C@H](C)CN(c2nc(=O)n(-c3c(C(C)C)ncnc3C(C)C)c3nc(-c4c(N)cccc4F)c(F)cc23)C[C@@H]1C [Example 24, 4-(4-Acryloyl-cis-3,5-dimethylpiperazin-1-yl)-7-(2-amino-6-fluorophenyl)-1-(4,6-diisopropylpyrimidin-5-yl)-6-fluoropyrido[2,3-d]pyrimidin-2(1H)-one] | 396 nM | –
2 | C=CC(=O)N1C[C@H](C)N(c2nc(=O)n(-c3c(C)ccnc3C(C)C)c3nc(-c4c(N)cccc4F)c(Cl)cc23)C[C@H]1C [Example 3, 4-((2S,5R,M)-4-Acryloyl-2,5-dimethylpiperazin-1-yl)-7-(2-amino-6-fluorophenyl)-6-chloro-1-(2-isopropyl-4-methylpyridin-3-yl)pyrido[2,3-d]pyrimidin-2(1H)-one] | 13 nM | 9 nM
3 | C=CC(=O)N1[C@H](C)CN(c2nc(=O)n(-c3c(C)ccnc3C(C)C)c3nc(-c4ccccc4F)c(F)cc23)C[C@@H]1C (atropisomer, axis not shown; (M)) [Example 16, (M)-4-(4-Acryloyl-cis-3,5-dimethylpiperazin-1-yl)-6-fluoro-7-(2-fluorophenyl)-1-(2-isopropyl-4-methylpyridin-3-yl)pyrido[2,3-d]pyrimidin-2(1H)-one] | 512 nM | –
4 | C=CC(=O)N1[C@H](C)CN(c2nc(=O)n(-c3c(C)ccnc3C(C)C)c3nc(-c4c(N)cccc4F)c(F)cc23)C[C@@H]1C (atropisomer, axis not shown; (M)) [Example 18, (M)-4-(4-Acryloyl-cis-3,5-dimethylpiperazin-1-yl)-7-(2-amino-6-fluorophenyl)-6-fluoro-1-(2-isopropyl-4-methylpyridin-3-yl)pyrido[2,3-d]pyrimidin-2(1H)-one] | 69 nM | 75 nM
5 | C=CC(=O)N1C[C@H](C)N(c2nc(=O)n(-c3c(C)ccnc3C(C)C)c3nc(-c4ccccc4F)c(F)cc23)C[C@H]1C [Example 4, 4-((2S,5R,M)-4-Acryloyl-2,5-dimethylpiperazin-1-yl)-6-fluoro-7-(2-fluorophenyl)-1-(2-isopropyl-4-methylpyridin-3-yl)pyrido[2,3-d]pyrimidin-2(1H)-one] | 206 nM | 102 nM
6 | C=CC(=O)N1[C@H](C)CN(c2nc(=O)n(-c3c(C)ccnc3C(C)C)c3nc(-c4c(O)cccc4F)c(F)cc23)C[C@@H]1C (atropisomer, axis not shown; (M)) [Example 17, (M)-4-(4-Acryloyl-cis-3,5-dimethylpiperazin-1-yl)-6-fluoro-7-(2-fluoro-6-hydroxyphenyl)-1-(2-isopropyl-4-methylpyridin-3-yl)pyrido[2,3-d]pyrimidin-2(1H)-one] | 117 nM | 105 nM
7 | C=CC(=O)N1[C@H](C)CN(c2nc(=O)n(-c3c(C)ccnc3C(C)C)c3nc(-c4c(N)cccc4F)c(Cl)cc23)C[C@@H]1C (atropisomer, axis not shown; (M)) [Example 15, (M)-4-(4-Acryloyl-cis-3,5-dimethylpiperazin-1-yl)-7-(2-amino-6-fluorophenyl)-6-chloro-1-(2-isopropyl-4-methylpyridin-3-yl)pyrido[2,3-d]pyrimidin-2(1H)-one] | – | 15 nM
8 | C=CC(=O)N1C[C@H](C)N(c2nc(=O)n(-c3c(C)ccnc3C(C)C)c3nc(-c4c(O)cccc4F)c(Cl)cc23)C[C@H]1C [Example 2, 4-((2S,5R,M)-4-Acryloyl-2,5-dimethylpiperazin-1-yl)-6-chloro-7-(2-fluoro-6-hydroxyphenyl)-1-(2-isopropyl-4-methylpyridin-3-yl)pyrido[2,3-d]pyrimidin-2(1H)-one] | 27 nM | 16 nM
9 | C=CC(=O)N1C[C@H](C)N(c2nc(=O)n(-c3c(C(C)C)ncnc3C(C)C)c3nc(-c4ccccc4F)c(Cl)cc23)C[C@H]1C [Example 7, 4-((2S,5R)-4-Acryloyl-2,5-dimethylpiperazin-1-yl)-6-chloro-1-(4,6-diisopropylpyrimidin-5-yl)-7-(2-fluorophenyl)pyrido[2,3-d]pyrimidin-2(1H)-one] | 49 nM | 26 nM
10 | C=CC(=O)N1C[C@H](C)N(c2nc(=O)n(-c3c(C(C)C)ncnc3C(C)C)c3nc(-c4c(O)cccc4F)c(F)cc23)C[C@H]1C [Example 11, 4-((2S,5R)-4-Acryloyl-2,5-dimethylpiperazin-1-yl)-1-(4,6-diisopropylpyrimidin-5-yl)-6-fluoro-7-(2-fluoro-6-hydroxyphenyl)pyrido[2,3-d]pyrimidin-2(1H)-one] | 136 nM | 103 nM
11 | C=CC(=O)N1[C@H](C)CN(c2nc(=O)n(-c3c(C(C)C)ncnc3C(C)C)c3nc(-c4ccccc4F)c(F)cc23)C[C@@H]1C [Example 22, 4-(4-Acryloyl-cis-3,5-dimethylpiperazin-1-yl)-1-(4,6-diisopropylpyrimidin-5-yl)-6-fluoro-7-(2-fluorophenyl)pyrido[2,3-d]pyrimidin-2(1H)-one] | 560 nM | –
12 | C=CC(=O)N1C[C@H](C)N(c2nc(=O)n(-c3c(C)ccnc3C(C)C)c3nc(-c4c(N)cccc4F)c(F)cc23)C[C@H]1C [Example 6, 4-((2S,5R,M)-4-Acryloyl-2,5-dimethylpiperazin-1-yl)-7-(2-amino-6-fluorophenyl)-6-fluoro-1-(2-isopropyl-4-methylpyridin-3-yl)pyrido[2,3-d]pyrimidin-2(1H)-one] | 38 nM | 26 nM
13 | C=CC(=O)N1C[C@H](C)N(c2nc(=O)n(-c3c(C(C)C)ncnc3C(C)C)c3nc(-c4c(N)cccc4F)c(F)cc23)C[C@H]1C [Example 12, 4-((2S,5R)-4-Acryloyl-2,5-dimethylpiperazin-1-yl)-7-(2-amino-6-fluorophenyl)-1-(4,6-diisopropylpyrimidin-5-yl)-6-fluoropyrido[2,3-d]pyrimidin-2(1H)-one] | 214 nM | 88 nM
14 | C=CC(=O)N1[C@H](C)CN(c2nc(=O)n(-c3c(C(C)C)ncnc3C(C)C)c3nc(-c4ccccc4F)c(Cl)cc23)C[C@@H]1C [Example 19, 4-(4-Acryloyl-cis-3,5-dimethylpiperazin-1-yl)-6-chloro-1-(4,6-diisopropylpyrimidin-5-yl)-7-(2-fluorophenyl)pyrido[2,3-d]pyrimidin-2(1H)-one] | 42 nM | 61 nM
15 | C=CC(=O)N1[C@H](C)CN(c2nc(=O)n(-c3c(C)ccnc3C(C)C)c3nc(-c4c(O)cccc4F)c(Cl)cc23)C[C@@H]1C (atropisomer, axis not shown; (M)) [Example 14, (M)-4-(4-Acryloyl-cis-3,5-dimethylpiperazin-1-yl)-6-chloro-7-(2-fluoro-6-hydroxyphenyl)-1-(2-isopropyl-4-methylpyridin-3-yl)pyrido[2,3-d]pyrimidin-2(1H)-one] | 16 nM | 35 nM
16 | C=CC(=O)N1[C@H](C)CN(c2nc(=O)n(-c3c(C(C)C)ncnc3C(C)C)c3nc(-c4c(O)cccc4F)c(Cl)cc23)C[C@@H]1C [Example 20, 4-(4-Acryloyl-cis-3,5-dimethylpiperazin-1-yl)-6-chloro-1-(4,6-diisopropylpyrimidin-5-yl)-7-(2-fluoro-6-hydroxyphenyl)pyrido[2,3-d]pyrimidin-2(1H)-one] | 34 nM | 22 nM
17 | C=CC(=O)N1[C@H](C)CN(c2nc(=O)n(-c3c(C(C)C)ncnc3C(C)C)c3nc(-c4c(N)cccc4F)c(Cl)cc23)C[C@@H]1C [Example 21, 4-(4-Acryloyl-cis-3,5-dimethylpiperazin-1-yl)-7-(2-amino-6-fluorophenyl)-6-chloro-1-(4,6-diisopropylpyrimidin-5-yl)pyrido[2,3-d]pyrimidin-2(1H)-one] | 92 nM | 36 nM
18 | C=CC(=O)N1[C@H](C)CN(c2nc(=O)n(-c3c(C(C)C)ncnc3C(C)C)c3nc(-c4c(O)cccc4F)c(F)cc23)C[C@@H]1C [Example 23, 4-(4-Acryloyl-cis-3,5-dimethylpiperazin-1-yl)-1-(4,6-diisopropylpyrimidin-5-yl)-6-fluoro-7-(2-fluoro-6-hydroxyphenyl)pyrido[2,3-d]pyrimidin-2(1H)-one] | 173 nM | 132 nM
